Data reported in US20220281821A1, “INDAZOLE COMPOUNDS AND THEIR PHARMACEUTICAL COMPOSITIONS” (Jinan University, priority 2019, published 2022).

Legend:
Format in all cases: cell-based, mouse
[1] = target: T1, BaF3-ETV6-NTRK3 (Homo sapiens, UniProt Q16288); assay: Cell proliferation inhibition (CCK-8), BaF3-ETV6-NTRK3 stable strain; details: BaF3-ETV6-NTRK3, 72 hours
T1 construct: fused on or other part: P41212 (Transcription factor ETV6)
Procedure: (§1) The brief steps of stable strain construction are as follows: construct a pCDNA3.1(+) plasmid vector carrying genes such as CD74-NTRK1, ETV6-NTRK2 and ETV6-NTRK3; the plasmid was electroporated into Ba/F3 cells using the Amaxa® Cell Line Nucleofector® Kit V; 48 hours after electroporated, G418 with a final concentration of 1000 μg/ml was added for screening for two weeks, and then IL3 was removed, and continued screening to obtain polyclonal stable strains; then single clones were selected by a limiting dilution method. The stable strains were then identified using positive drugs, WB and gene sequencing; and the monoclonal clones that were identified as completely correct may be used for the study of cell proliferation inhibitory activity of inhibitors.
(§2) Cell proliferation inhibition activity study: the cells in the logarithmic growth phase were seeded into 96-well plates at 8000-12000 cells/well, and inhibitors at different concentrations (0-10 μM) were added the next day, and incubation was continued for 72 hours; then 10 μL of CCK-8 reagent was added to each well, and the incubation was continued for 1-3 hours; and then use a super microplate reader to measure their absorbance values at 450 nm and 650 nm. The half-inhibition concentration (IC50) was calculated using GraphPad Prism 8.0.0.

[2] = target: T2, BaF3-ETV6-NTRK2 (Homo sapiens, UniProt Q16620); assay: Cell proliferation inhibition (CCK-8), BaF3-ETV6-NTRK2 stable strain; details: BaF3-ETV6-NTRK2, 72 hours
T2 construct: fused on or other part: P41212 (Transcription factor ETV6)
Procedure: as §1, §2

[3] = target: T3, BaF3-CD74-NTRK1 (Homo sapiens, UniProt P04629); assay: Cell proliferation inhibition (CCK-8), BaF3-CD74-NTRK1 stable strain; details: BaF3-CD74-NTRK1, 72 hours
T3 construct: fused on or other part: P04233 (HLA class II histocompatibility antigen gamma chain)
Procedure: as §1, §2

T2 sequence (Q16620 538-822 limits assumed): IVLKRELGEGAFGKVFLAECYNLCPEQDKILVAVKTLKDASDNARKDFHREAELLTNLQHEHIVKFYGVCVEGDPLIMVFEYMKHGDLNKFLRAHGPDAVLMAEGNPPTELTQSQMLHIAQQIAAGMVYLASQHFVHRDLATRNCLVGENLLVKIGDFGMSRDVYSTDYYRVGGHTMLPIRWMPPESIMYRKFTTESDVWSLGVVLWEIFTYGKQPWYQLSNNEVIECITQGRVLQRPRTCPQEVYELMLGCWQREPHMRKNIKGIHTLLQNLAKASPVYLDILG
T3 sequence (P04629 510-796 limits assumed): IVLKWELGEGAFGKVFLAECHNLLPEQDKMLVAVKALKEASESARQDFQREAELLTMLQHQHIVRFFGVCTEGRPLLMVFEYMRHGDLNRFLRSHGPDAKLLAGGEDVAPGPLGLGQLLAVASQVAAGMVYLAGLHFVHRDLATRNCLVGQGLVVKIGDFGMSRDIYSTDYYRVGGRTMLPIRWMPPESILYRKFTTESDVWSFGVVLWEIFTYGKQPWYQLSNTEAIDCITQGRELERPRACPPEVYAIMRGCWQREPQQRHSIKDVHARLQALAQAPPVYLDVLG
T1 sequence (Q16288 whole entry, the tested form may be a part): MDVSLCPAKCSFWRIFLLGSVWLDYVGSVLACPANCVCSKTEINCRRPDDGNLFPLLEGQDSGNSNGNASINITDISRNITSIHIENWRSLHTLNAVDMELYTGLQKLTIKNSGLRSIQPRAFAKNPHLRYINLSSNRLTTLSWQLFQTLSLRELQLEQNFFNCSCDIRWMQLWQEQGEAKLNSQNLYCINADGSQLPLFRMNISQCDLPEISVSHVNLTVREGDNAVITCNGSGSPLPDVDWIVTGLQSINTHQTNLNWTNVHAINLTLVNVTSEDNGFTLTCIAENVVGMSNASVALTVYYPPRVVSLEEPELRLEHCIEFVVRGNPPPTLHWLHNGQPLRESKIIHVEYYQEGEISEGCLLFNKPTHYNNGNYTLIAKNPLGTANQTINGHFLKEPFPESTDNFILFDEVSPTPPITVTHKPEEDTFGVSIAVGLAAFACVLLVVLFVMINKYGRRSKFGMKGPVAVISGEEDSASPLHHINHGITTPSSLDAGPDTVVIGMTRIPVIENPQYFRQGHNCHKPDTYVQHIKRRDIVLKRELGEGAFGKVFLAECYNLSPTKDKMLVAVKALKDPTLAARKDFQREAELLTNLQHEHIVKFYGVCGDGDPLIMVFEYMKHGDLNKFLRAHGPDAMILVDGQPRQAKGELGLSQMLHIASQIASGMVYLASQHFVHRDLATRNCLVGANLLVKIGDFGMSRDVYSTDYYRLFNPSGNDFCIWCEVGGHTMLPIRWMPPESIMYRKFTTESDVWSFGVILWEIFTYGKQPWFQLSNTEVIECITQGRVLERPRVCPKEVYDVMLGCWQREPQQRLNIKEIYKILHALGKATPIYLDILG

Compound	IC50 [1] [nM]	IC50 [2] [nM]	IC50 [3] [nM]
C[C@@H](Nc1ccc2[nH]nc(/C=C/c3cnn(C)c3)c2c1)c1cc(F)cc(F)c1 [DYX-346, (R,E)-N-(1-(3,5-difluorophenyl)ethyl)-3-(2-(1-methyl-1H-pyrazol-4-yl)vinyl)-1H-indazol-5-amine]	3.1	9.5	6.5
CCn1cc(/C=C/c2n[nH]c3ccc(N[C@H](C)c4cc(F)cc(F)c4)cc23)cn1 [DYX-349, (R,E)-N-(1-(3,5-difluorophenyl)ethyl)-3-(2-(1-ethyl-1H-pyrazol-4-yl)vinyl)-1H-indazol-5-amine]	4.3	10.7	7.4
Fc1cc(Cl)cc(CNc2ccc3[nH]nc(/C=C/c4ccccn4)c3c2)c1 [DYX-400, (E)-N-(3-fluoro-5-chlorobenzyl)-3-(2-(pyridin-2-yl)vinyl)-1H-indazol-5-amine]	41.1	154	59
N#Cc1cc(F)cc(CNc2ccc3[nH]nc(/C=C/c4ccccn4)c3c2)c1 [DYX-402, (E)-3-fluoro-5-(((3-(2-(pyridin-2-yl)vinyl)-1H-indazol-5-yl)amino)methyl)benzonitrile]	22.6	53.5	28.2
COc1cc(F)cc(CNc2ccc3[nH]nc(/C=C/c4ccccn4)c3c2)c1 [DYX-403, (E)-N-(3-fluoro-5-methoxybenzyl)-3-(2-(pyridin-2-yl)vinyl)-1H-indazol-5-amine]	180	137	52.6
C[C@@H](Nc1ccc2[nH]nc(/C=C/c3cccnc3)c2c1)c1cc(F)cc(F)c1 [DYX-409, (R,E)-N-(1-(3,5-difluorophenyl)ethyl)-3-(2-(pyridin-3-yl)vinyl)-1H-indazol-5-amine]	7.7	36.9	6.4
C[C@@H](Nc1ccc2[nH]nc(/C=C/c3cnccn3)c2c1)c1cc(F)cc(F)c1 [DYX-411, (R,E)-N-(1-(3,5-difluorophenyl)ethyl)-3-(2-(pyrazin-2-yl)vinyl)-1H-indazol-5-amine]	11	38	35.7
Fc1ccccc1CNc1ccc2[nH]nc(/C=C/c3ccccn3)c2c1 [DYX-413, (E)-N-(2-fluorobenzyl)-3-(2-(pyridin-2-yl)vinyl)-1H-indazol-5-amine]	161	376	40.8
Fc1cc(CNc2ccc3[nH]nc(/C=C/c4ccccn4)c3c2)cc(C(F)(F)F)c1 [DYX-414, (E)-N-(3-fluoro-5-(trifluoromethyl)benzyl)-3-(2-(pyridin-2-yl)vinyl)-1H-indazol-5-amine]	1180	2520	196
Fc1cc(Br)cc(CNc2ccc3[nH]nc(/C=C/c4ccccn4)c3c2)c1 [DYX-415, (E)-N-(3-bromo-5-fluorobenzyl)-3-(2-(pyridin-2-yl)vinyl)-1H-indazol-5-amine]	156	510	50.8
Fc1ccc(Cl)c(CNc2ccc3[nH]nc(/C=C/c4ccccn4)c3c2)c1 [DYX-416, (E)-N-(2-chloro-5-fluorobenzyl)-3-(2-(pyridin-2-yl)vinyl)-1H-indazol-5-amine]	34.3	88.7	21
Fc1ccc(CNc2ccc3[nH]nc(/C=C/c4ccccn4)c3c2)cc1 [DYX-417, (E)-N-(4-fluorobenzyl)-3-(2-(pyridin-2-yl)vinyl)-1H-indazol-5-amine]	579	2530	158
COc1ccc(F)cc1CNc1ccc2[nH]nc(/C=C/c3ccccn3)c2c1 [DYX-418, (E)-N-(5-fluoro-2-methoxybenzyl)-3-(2-(pyridin-2-yl)vinyl)-1H-indazol-5-amine]	16.2	41	7.6
Fc1cncc(CNc2ccc3[nH]nc(/C=C/c4ccccn4)c3c2)c1 [DYX-419, (E)-N-((5-fluoropyridin-3-yl)methyl)-3-(2-(pyridin-2-yl)vinyl)-1H-indazol-5-amine]	4	11.9	2.4
Fc1cc(Cl)cc(Cc2ccc3[nH]nc(/C=C/c4ccccn4)c3c2)c1 [Example D02F01, (E)-5-(3-chloro-5-fluorobenzyl)-3-(2-(pyridin-2-yl)vinyl)-1H-indazole]	151	362	204
COc1cc(F)cc(Cc2ccc3[nH]nc(/C=C/c4ccccn4)c3c2)c1 [Example D05F01, (E)-5-(3-fluoro-5-methoxybenzyl)-3-(2-(pyridin-2-yl)vinyl)-1H-indazole]	367	462	203
Clc1cc(Cl)cc(Cc2ccc3[nH]nc(/C=C/c4ccccn4)c3c2)c1 [Example D06F01, (E)-5-(3,5-dichlorobenzyl)-3-(2-(pyridin-2-yl)vinyl)-1H-indazole]	851	> 10000	564
Cc1cc(C)cc(Cc2ccc3[nH]nc(/C=C/c4ccccn4)c3c2)c1 [Example D07F01, (E)-5-(3,5-dimethylbenzyl)-3-(2-(pyridin-2-yl)vinyl)-1H-indazole]	2040	3020	2310
COc1ccc(F)cc1Cc1ccc2[nH]nc(/C=C/c3ccccn3)c2c1 [Example D09F01, (E)-5-(5-fluoro-2-methoxybenzyl)-3-(2-(pyridin-2-yl)vinyl)-1H-indazole]	18.1	56.1	40.6

Now from value to molecule:

IC50 [1] [nM]	IC50 [2] [nM]	IC50 [3] [nM]	Compound
112	448	113	Cc1cc(F)cc(CNc2ccc3[nH]nc(/C=C/c4ccccn4)c3c2)c1 [DYX-401, (E)-N-(3-fluoro-5-methylbenzyl)-3-(2-(pyridin-2-yl)vinyl)-1H-indazol-5-amine]
3.5	11.7	10.3	C[C@@H](Nc1ccc2[nH]nc(/C=C/c3ccncc3)c2c1)c1cc(F)cc(F)c1 [DYX-410, (R,E)-N-(1-(3,5-difluorophenyl)ethyl)-3-(2-(pyridin-4-yl)vinyl)-1H-indazol-5-amine]
35.6	115	110	C[C@@H](Nc1ccc2[nH]nc(/C=C/c3ccccc3)c2c1)c1cc(F)cc(F)c1 [DYX-412, (R,E)-N-(1-(3,5-difluorophenyl)ethyl)-3-styryl-1H-indazol-5-amine]
158	400	112	Cc1ccccc1/C=C/c1n[nH]c2ccc(Cc3cc(F)cc(F)c3)cc12 [Example D01F08, (E)-5-(3,5-difluorobenzyl)-3-(2-methylstyryl)-1H-indazole]
25.6	159	12.9	Fc1cc(F)cc(Cc2ccc3[nH]nc(/C=C/c4ccccc4C(F)(F)F)c3c2)c1 [Example D01F11]
125	171	90.9	Cn1cc(/C=C/c2n[nH]c3ccc(NS(=O)(=O)c4cc(F)cc(F)c4)cc23)cn1 [Example D5217, (E)-3,5-difluoro-N-(3-(2-(1-methyl-1H-pyrazol-4-yl)vinyl)-1H-indazol-5-yl)benzenesulfonamide]
14.1	19.1	10.6	CCn1cc(/C=C/c2n[nH]c3ccc(NS(=O)(=O)c4cc(F)cc(F)c4)cc23)cn1 [Example D5218, (E)-3,5-difluoro-N-(3-(2-(1-ethyl-1H-pyrazol-4-yl)vinyl)-1H-indazol-5-yl)benzenesulfonamide]
175	215	120	O=S(=O)(Nc1ccc2[nH]nc(/C=C/c3cn[nH]c3)c2c1)c1cc(F)cc(F)c1 [Example D5220, (E)-3,5-difluoro-N-(3-(2-(1H-pyrazol-4-yl)vinyl)-1H-indazol-5-yl)benzenesulfonamide]
128	196	144	O=S(=O)(Nc1ccc2[nH]nc(/C=C/c3cnn(CCO)c3)c2c1)c1cc(F)cc(F)c1 [Example D5221, (E)-3,5-difluoro-N-(3-{2-[1-(2-hydroxyl-ethyl)-1H-pyrazol-4-yl]-vinyl}-1H-indazol-5-yl)-benzenesulfonamide]
40.7	133	18.9	O=S(=O)(c1cc(F)cc(F)c1)c1ccc2[nH]nc(/C=C/c3ccncc3)c2c1 [Example E01F02, (E)-5-((3,5-difluorophenyl)sulfonyl)-3-(2-(pyridin-4-yl)vinyl)-1H-indazole]
92.9	441	35.8	O=S(=O)(c1cc(F)cc(F)c1)c1ccc2[nH]nc(/C=C/c3ccccc3)c2c1 [Example E01F07, (E)-5-((3,5-difluorophenyl)sulfonyl)-3-styryl-1H-indazole]
82.9	220	43.8	Cc1ccccc1/C=C/c1n[nH]c2ccc(S(=O)(=O)c3cc(F)cc(F)c3)cc12 [Example E01F08, (E)-5-((3,5-difluorophenyl)sulfonyl)-3-(2-methylstyryl)-1H-indazole]
